Among the data in a melting point compilation (Tetko et al.; mined from patent text by program, amines drawn as free bases though some values may be those of a salt) are melting point values, retold here.

In general, melting point refers to the temperature of the solid-liquid transition. `O=C(NN=Cc1ccc(Cl)cc1)c1[nH]c2ccccc2c1C(=O)Nc1ccccc1` showed a melting point of over 260 °C. On to `CCOC(=O)c1cc(=O)c2c(OCC(O)COc3ccc(C#N)c(OC)c3)cccc2o1` (stereo not drawn), for which the melting point was in the range of 143 to 145 °C. Take `O=C(O)CN(Cn1nnc2ccccc21)Cn1nnc2ccccc21`: the melting point lay within 163 to 166 °C. The compound `CCOC(=O)c1c(NC)c(N=O)c2ccccn12` gave a melting point of 156 to 157 °C. As for `CON(C)C(=O)CNC(=O)OC(C)(C)C`, the figure is 92 to 95 °C.

`COc1ccc(-c2cc(C(C)(C)CC(C)(C)C)cc(-n3nc4ccc(C(F)(F)F)cc4n3)c2O)cc1` came in with a melting point of 99 to 102 °C.

`CCCCCN1C(=O)C(=O)c2c(OC)cccc21` returned a melting point of 80 to 82 °C. As for `CCc1nc(=O)c2cc3ccccc3nc2[nH]1`, the melting point is 240 to 245 °C. `CNC(=O)C(Cc1ccc(OC)cc1)NC(=O)C(CC(C)C)C(S)CC(=O)NCC(=O)OC(C)(C)C` (stereo not drawn) showed a melting point of 223 to 226 °C. Compound `O=C1NCCN1CC#CCN1CCCC1` registered a melting point of 71 to 75 °C. `CNC(=O)[C@@H](NC(=O)[C@H](CC(=O)O)CC(C)C)C(C)(C)C` gave a melting point of 204 to 205 °C. With `COCOCc1nc(-c2ccccc2)oc1CCc1ccc(O)cc1`, the melting point is 102 to 103 °C. Consider `CC(C)CN(C)C1=NS(=O)(=O)c2cccc(Cl)c21`, for which the melting point lay in the range of 160 to 162 °C. In turn, `Cc1ccc(S(=O)(=O)ON=C(CCN2C(=O)c3ccccc3C2=O)n2nc(C)c(Cl)c2N)cc1` gave a melting point of 168 to 171 °C. For the compound `Cc1cc(CCCOc2c(C)cc(-c3noc(C(Cl)(Cl)Cl)n3)cc2C)on1`, the melting point lay in the range of 77 to 77.5 °C. The same measure for `CCC1(CC)CN(C(C)(C)C)C(=O)C(CC)(CC)N1OC(C)(C)C#N`: 45 to 52 °C; for `Nc1ncc(CCCCc2ccccc2)c(N)n1`: 126 to 127 °C. For the compound `CCCCCCc1ccc(-c2c(C#N)nn(C(C)(C)Cc3ccc(C)cc3)c2O)cc1`, the melting point lay within 140 to 142 °C. For the compound `CC1CSC2=CC=NC3=CC=CC(c4ccccc4)C321` (stereo not drawn), the melting point stood at 164 °C. For the compound `CCCCCCCCCCCCc1nnn(C(CCCCCCCCCCCC)C(=O)O)n1` (stereo not drawn), the melting point is 57 to 59 °C. On to `CCOC(=O)[C@@H](Cc1ccc2ccc(C#N)cc2c1)c1ccc(O[C@H]2CCN(Cc3ccccc3)C2)cc1`, for which the melting point lay within 95 to 95.5 °C. In the case of `CCc1ccc(-c2cccc(-c3ccnc4c(C(=O)c5cccs5)cnn34)c2)cc1`, the melting point lay in the range of 117 to 119 °C. Regarding `O=C(O)COc1ccc(SCc2cc(-c3ccc(Cl)cc3)on2)c2c1CCC2`, the melting point lay in the range of 112 to 114 °C. For `CCCn1nc(C(C)C)c(C(N)=O)c1Cc1ccc(-c2ccccc2S(=O)(=O)NC(=O)c2ccccc2)cc1`, the melting point is 197 to 200 °C.

Take `CC(=O)OCC(=O)NCc1cccc(-c2csc(N=C(N)NC(=O)COC(C)=O)n2)n1`: the melting point is 148 to 151 °C. The same measure for `CCCc1nc(C(=O)C(C)C)c(C#N)n1Cc1ccc(-c2ccccc2-c2nnnn2C(c2ccccc2)(c2ccccc2)c2ccccc2)cc1`: 133 to 134 °C; for `CCCC1(Cl)Cc2cc(OCC(=O)O)c(Cl)c(Cl)c2C1=O` (stereo not drawn): 185 to 187 °C; for `CN1CCN(c2ccc(N/C=C3\C(=O)NC(=O)c4ccc(C(=O)O)cc43)cc2)CC1`: 278 to 280 °C. Compound `CC(C)(C)c1ccc(CN(Cc2cccc(OCC(=O)O)c2)S(=O)(=O)c2cccnc2)cc1` gave a melting point of 159 to 160 °C.

Take `O=C(c1cccc(C(F)(F)F)c1)N1CCc2cc(S(=O)(=O)N3CC(c4ccccc4)NC3=O)ccc21` (stereo not drawn): the melting point was 119 °C.

For `CC(=O)C1=CCC2C3CCC4=CC(=O)C=CC4(C)C3(F)C(O)CC12C` (stereo not drawn), the melting point fell in the range of 327 to 328 °C. As for `CN(C)C(=NC(=Nc1ccccc1)N1CCOCC1)N(C)C`, the figure is 115 to 119 °C; as for `COc1ccc2c(c1)C(=NO)CCCO2`, 103 to 104 °C; as for `CCN1C(=O)CN(C(=O)OCc2ccccc2)Cc2cc(OC)c([N+](=O)[O-])cc21`, 55 to 56 °C.

`COc1cccc(-c2cccc3c2C(=O)OC(C)(C)O3)n1` gave a melting point of 130 to 132 °C.

`COC(=O)CC(=O)c1ccc(O)cc1`: the melting point is 90 to 92 °C. `CSc1nccc(C(C)=NO)n1` yielded a melting point of 150 to 152 °C. Compound `Cc1ccc2c(c1)c1c(n2C(=O)c2ccccc2)CCCC1C(=O)O` (stereo not drawn) showed a melting point of 149 to 153 °C. Compound `CCOCC1(C)CCCSc2cc(/C=C/c3ccc(C(=O)O)cc3)ccc21` (stereo not drawn) registered a melting point of 186 to 187 °C.

On to `O=C(N[C@@H](Cc1c[nH]cn1)C(=O)OCCc1cccs1)C(Cc1cccc2ccccc12)Cc1cccc2ccccc12`, for which the melting point was in the range of 203 to 206 °C. The same measure for `CC(C)(C)c1cc(-c2c[nH]c(=S)[nH]2)cc(C(C)(C)C)c1O`: 168 to 170 °C; for `CCOC(=O)c1ncn2c1CN(C)C(=O)c1c(Br)cccc1-2`: 214 to 215 °C. The same measure for `O=C(O)COc1ccc(OC2CCN(c3ccncc3)CC2)cc1`: 288 to 291 °C; for `CC(C)(C)c1cc(-c2cn3ccsc3n2)cc(C(C)(C)C)c1O`: 184 to 185 °C.

In the case of `COc1cc(Nc2c(C#N)cnc3cc(-c4csc(C5OCCO5)c4)ccc23)c(Cl)cc1Cl`, the melting point fell in the range of 234 to 236 °C. As for `COc1ccccc1-n1c(-c2sc(Nc3ccccc3)nc2C)nc2ccccc2c1=O`, the figure is 169 to 170 °C; as for `Oc1nc2ncnn2c(O)c1-c1c(F)cc(F)cc1F`, 200 to 201 °C; as for `CCC(C)(C)N1C(=O)C(=O)N(c2ccc(C#N)cc2)C1=S`, 173 to 174 °C. For the compound `N#CCc1ccc(Br)nc1`, the melting point is 55.5 to 57.5 °C. For the compound `CNc1cc(CO)cc(S(N)(=O)=O)c1Oc1ccccc1`, the melting point lay within 167 to 168 °C. The same measure for `COc1ccc(CCOc2ccc(NC(=O)c3cc(F)cc(N4CCOCC4)c3)c3ccccc23)cc1OC`: 73 to 75 °C; for `CCc1cccc2c1C(=O)N(Cn1nnn(-c3ccccc3)c1=S)S2(=O)=O`: 127 to 129 °C. The same measure for `Nc1sc2c(c1C(=O)c1ccc(Cl)s1)CCCC2`: 173 to 175 °C; for `CS(=O)(=O)Nc1cc2c(cc1Oc1ccccc1)C(=O)CCO2`: 143 to 144 °C; for `COC(=O)c1csc(NC(=O)c2cc(OC)c(OC)cc2OC)n1`: 251 to 252 °C. As for `O=c1c2c(c3cccnc3n1-c1ccccc1)OCCC2`, the figure is 253 to 255 °C; as for `O=C(c1cccc(N2CC(=O)N(S(=O)(=O)c3ccc(Cl)cc3)C2=O)c1)N1CCOCC1`, 248 to 253 °C.

Compound `Cc1cc2c(cc1C)C(C(=O)O)SCC2=O` (single isomer, unassigned; (-)) had a melting point of 177 to 178 °C.

Consider `CCCCCC(=O)NS(=O)(=O)CCc1cc(OC(C)C)nn1Cc1ccc(Cl)cc1Cl`, for which the melting point lay within 107 to 108 °C. `CCOC(=O)C(=CNc1cccc(C(F)(F)F)n1)C(=O)OCC` had a melting point of 125 to 128 °C.

Compound `NC(=S)NC(c1ccccc1)c1ccc(Cl)cc1` (stereo not drawn) registered a melting point of 173 to 175 °C. Consider `Cn1c2c(c3cccc(C(=O)O)c31)CCCC2`, for which the melting point worked out at 180 °C. In turn, `CC(=O)c1ccc(-c2ccc(Br)cc2)c(Br)c1` returned a melting point of 82.5 to 84.5 °C.
